Laboratory results from publication PMC5365251, “Biophysical assay for tethered signaling reactions reveals tether-controlled activity for the phosphatase SHP-1” (Science Advances, 2017).

Test system: phosphorylated ITIM peptide on PEG28
Assay: Calculation of local concentration, dephosphorylation time and rate enhancement from fitted parameters
Set-up: species or system mouse
Description: The tethered enzymatic SPR assay also produced an estimate for the reach parameter (L), which was 23 nm. This number corresponds to a phosphorylated substrate experiencing a maximum local SHP-1 concentration of 45 μM when tethered, compared to, for example, a concentration of 1 μM in solution (Fig. 2A) or in the cytoplasm of immune cells (see Discussion).
Activatory and inhibitory immune receptors are both known to cluster in the plasma membrane ([11]–[15]), but the extent and consequences of clustering remain poorly understood. In the absence of clustering, a phosphorylation site on the cytoplasmic tails of these receptors will experience the low ~1-μM concentration of cytoplasmic SHP-1 [based on 280,000 copies of SHP-1 in cytotoxic T cells ([30]) with a radius of 5 μm]. Tethering of SHP-1 to nonclustered immune receptors at distances >50 nm results in even lower concentrations (for example, 0.04 μM when receptors are 50-nm apart), but when clustered within 5 nm, we can now estimate that this phosphorylated site will experience an SHP-1 concentration of 45 μM (Fig. 8A). […] These concentrations are calculated using the formula for σ with L = 23 nm for r = 5 and 50 nm (see Materials and Methods). We note that this is based on a reach of L = 23 nm, which represents SHP-1 bound to an ITIM on PEG28 dephosphorylating another ITIM on PEG28.
The combined effects induced by SHP-1 tethering on allosteric activation (20-fold) and local substrate concentration (45-fold) can be summarized by calculating the dephosphorylation rate ([SHP-1] × kcat* ).
A key component of the models (described below) is the calculation of the local substrate concentration that a tethered enzyme experiences. We assume that the motion of an unbound phosphorylated peptide (state A) and the motion of SHP-1 bound to a phosphorylated peptide (state B) can both be approximated by the worm-like chain model, which is a widely used polymer model. […]

**Q.** How did the “increase in overall dephosphorylation rate when tethered and clustered” value ([SHP-1] × kcat*, 45 μM × 0.0118 versus 1 μM × 0.000603 μM^-1 s^-1) turn out when “SHP-1: murine SHP-1 tyrosine phosphatase with an N-terminal 6× His tag, expressed in E. coli” was run?
**A.** 900 fold

**Q.** And the “increase in SHP-1 (local substrate) concentration on tethering to clustered receptors” value (solution 1 μM versus tethered and clustered 45 μM)?
**A.** 45 fold

**Q.** And the “reduction of reaction time by tethering” value (time to 50% dephosphorylation with versus without tethering)?
**A.** 125 fold
